Test [1] deals with T1, ADH1 (Artemisia annua alcohol dehydrogenase) (Artemisia annua, UniProt A0A2U1Q018, G20S/L19S/V78I).
T1 construct: 6xHis (N-terminal tag and attB linker encoded by pDEST17); made in house; host or cells: E. coli Rosetta (DE3)
The experiment in a line: Specific ADH1 activity enzyme assay (crude protein from E. coli, NAD+, GC/MS analysis). It is filed as biochemical. The conditions noted are these: 1 mM NAD+, 0.1 μg/μl substrate, approximately 90 μg crude protein, 30° C., 30 minutes. How it is done:
The Gateway vector pDEST17 had the Adh1 gene inserted and was subsequently transformed into a competent expression E. coli strain Rosetta (DE3). These cells were grown overnight in 3 ml of LB broth amended with 100 μg/ml ampicillin. An aliquot of 1 ml overnight culture was sub cultured to 100 ml of fresh LB broth also amended with 100 μg/ml of ampicillin. The culture was incubated at 37° C. until the optical density reached 0.8 at 600 nm. A final concentration of 1 mM IPTG was then added to the culture and the flask was incubated at 30° C. for another 4 hours. Cells were harvested by centrifugation at 10,000 rcf for 10 minutes. Pelleted cells were resuspended in 20 mM sodium phosphate pH 7.4 and 500 mM NaCl. Cell walls were disrupted by sonication on ice at intervals of 0.7 seconds for 1 minute, followed by a 1 minute cool down this was repeated three times. The sonicated cells were centrifuged at 10,000 rcf for 10 minutes; the supernatant which contained the soluble ADH1 was concentrated and desalted by spin dialysis (using Amicon Ultra-15 devices; Millipore, Mass.), and stored in a new tube at 4° C. This method of recombination and expression was also used for a control plasmid pDEST17-gus.
Enzyme assay was prepared to determine the specific activity of ADH1. […]

A further test deals with Plasmodium falciparum. As to conditions: reported to be more active than artesunate; cited from earlier work.

SMILES strings stand for the structures.

T1 sequence (A0A2U1Q018 whole entry L19S/G20S/V78I): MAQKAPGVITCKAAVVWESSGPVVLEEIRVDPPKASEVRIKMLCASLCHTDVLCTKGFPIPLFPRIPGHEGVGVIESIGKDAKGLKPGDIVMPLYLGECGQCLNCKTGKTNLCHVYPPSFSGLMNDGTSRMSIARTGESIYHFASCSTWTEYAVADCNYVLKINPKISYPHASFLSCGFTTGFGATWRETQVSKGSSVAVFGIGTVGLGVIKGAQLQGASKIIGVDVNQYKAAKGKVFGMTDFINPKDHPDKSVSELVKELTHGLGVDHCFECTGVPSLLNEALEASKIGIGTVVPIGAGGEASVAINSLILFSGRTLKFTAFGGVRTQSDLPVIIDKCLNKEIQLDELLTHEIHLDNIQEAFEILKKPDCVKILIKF

Regarding `C=C(CO)[C@@H]1CC[C@@H](C)[C@@H]2CCC(C)=C[C@@H]21` [artemisinic alcohol], in test [1], the “oxidation of substrate by ADH1 (product observed by GC/MS)” value is recorded as “presence of product artemisinic aldehyde”.
As to `C[C@H]1[C@H](N2CCS(=O)(=O)CC2)O[C@@H]2O[C@@]3(C)CC[C@H]4[C@H](C)CC[C@@H]1[C@@]24OO3` [Artemisone], the “activity relative to artesunate” value in the test with Plasmodium falciparum was 10-30 fold.
Regarding `CC1=C[C@H]2[C@@H](CC1)[C@H](C)CC[C@H]2[C@@H](C)CO` [dihydroartemisinic alcohol, (11R)-dihydroartemisinic alcohol], in test [1], the “oxidation of substrate by ADH1 (product observed by GC/MS)” value is “no observed product”.

The values above are taken from patent US20110162097A1, “NUCLEOTIDE SEQUENCE ENCODING AN ALCOHOL DEHYDROGENASE FROM ARTEMISIA ANNUA AND USES THEREOF” (priority 2008, published 2011).
